Entries after “also recorded” stand apart in the source; their conditions may differ.
What was measured:
[1] = tested on: PMNs isolated from healthy adult donors; assay: PMN phagocytosis of E. coli BIOPARTICLES; assay type: cell-based, human; settings: 1 nM, 60 minutes pre-incubation, 4 hours
Experimental: PMNs were isolated from blood of healthy adult donors and resuspended in M-199 at a concentration of 2×10^6 cells/mL. Leukocytes were pre-incubated for 60 minutes under standard conditions with cytochalasin B and […] (1 nM), or SCR (1 nM). Following pre-incubation, PMNs were incubated with 6×10^6 E. coli BIOPARTICLES (E-13231, MOLECULAR PROBES) on a rotator for 4 hours under standard conditions. The PMNs were then washed and resuspended in the starting volume in M-199 before being spun down onto glass coverslips and fixed with 2% paraformaldehyde for 10 minutes and permeabilized with 0.1% Triton-X-100 for 10 minutes. Leukocytes were stained with WGA 555 (INVITROGEN) and TO[…] (MOLECULAR PROBES) and randomly selected high power visual field images were captured using confocal microscopy. IMAGE-J software (NIH) was used to determine the percentage of PMNs that were positive for fluorescently labeled E. coli BIOPARTICLES detected at 488 nm.

[2] = tested on: human PMNs and platelets; assay: Platelet/PMN aggregation; assay type: cell-based; settings: LPS-stimulated PMNs mixed with thrombin-stimulated platelets
Experimental: Using protocols modified from Saboor et al., […] Med Sci, 2013, 20: 62-66, human PMNs (2×10^6 cells/mL) were isolated and incubated with […] or SCR (0.1-10 ng/ml) for 1 hour prior to addition of freshly isolated human platelet at a ratio of 100:1 for another 15 minute incubation. After this period, the cells (PMNs and platelets) were stimulated with thrombin (0.1 IU/mL) or control M-199 media for 1 hour. The cells were stained for 20 minutes with the following primary monoclonal antibodies: PE-conjugated CD41 and FITC-conjugated CD16. Isotype and fluorochrome matched control antibodies were used. Flow cytometry was performed using BECTON-DICKINSON FACSCAN and CELLQUEST software.

[3] = tested on: human PMNs incubated with live S. aureus; assay: NET formation by human PMNs incubated with live S. aureus; assay type: cell-based; settings: pretreatment 1 nM; live S. aureus (MOI 100)
Experimental: A human histone H3 release assay was used to quantify NET formation (n=2). NET-inhibitory activity of CRISPP was tested using in vitro models of two human infectious diseases: Staphylococcus aureus bacteremia and dengue fever.
Qualitative assessment of NET formation was performed as previously referenced in Yost et al., Blood, 2009, 113: 6419-6427 and McInturff et al., Blood, 2012, 120: 3118-3125. Briefly, primary PMNs isolated from preterm infants, healthy term infants, and healthy adults (2×10^6 cells/mL) were incubated with control buffer or stimulated with LPS (100 ng/mL), PMA (20 nM), or S. aureus bacteria (MOI 100) for 1 hour at 37° C. in 5% CO2/95% air on glass coverslips coated with poly-L-lysine. For selected experiments, primary PMNs were pre-incubated with autologous plasma, cord blood plasma, nNIF (1 nM), CRISPP (1 nM), or SCR (1 nM) for 1 hour prior to imaging. After pre-incubation and/or stimulation, PMNs were gently washed with PBS and incubated with a mixture of cell permeable (SYTO Green, MOLECULAR PROBES) and impermeable (SYTOX Orange, MOLECULAR PROBES) DNA fluorescent dyes. Confocal microscopy was accomplished using a FV300 1×81 Microscope and FLUOVIEW software (OLYMPUS). Both 20× and 60× objectives were used. […]
Supernatant total histone H3 content was determined as previously referenced in McInturff et al., Blood, 2012, 120: 3118-3125. […]

[4] = tested on: human PMNs incubated with dengue virus; assay: Dengue virus-induced NET formation by human PMNs; assay type: cell-based; settings: pretreatment 1 nM, 1 hour; dengue virus 0.05 MOI
Experimental: Mock incubation using dengue virus media without infection served as a control. Dengue virus induced NET formation by PMNs from human adults.
Primary PMNs isolated from healthy adults (2×10^6 cells/mL) were incubated with mock infection buffer or live dengue virus (MOI 0.05), as for the live cell imaging discussed above. After a 1 hour incubation, the infected PMNs were fixed with 2% p-FA for 10 minutes prior to incubation with fluorescently-labeled, cell permeable and cell impermeable DNA dyes, and imaged as for live cell imaging using confocal microscopy.

Cancer-Associated SCM-Recognition, Immune Defense Suppression, and Serine Protease Protection Peptide [CRISPP, nNIF-related peptide (nNRP)]
PMN phagocytosis [1]: did not significantly inhibit | Platelet/PMN association (flow cytometry) [2]: did not alter | NET formation induced by S. aureus [3]: completely blocked NET formation; also recorded: inhibited NET formation | NET formation induced by dengue virus [4]: completely blocked NET formation; also recorded: inhibited NET formation
